Marks after values point to notes of the source that are not given here.
Assays:
Assay type in all cases: in vivo
Settings in all cases: 100 = 100% disease control
Botrytis cinerea = test: Test C: tomato Botrytis on tomato seedlings, sprayed the day before inoculation, visual disease rating
Procedure, shortened: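 Each compound is first taken up in acetone at 3% of the final volume and then brought to the desired ppm in a 50:50 acetone–water mix with 250 ppm surfactant (polyhydric alcohol esters). Tomato seedlings receive the suspension to run-off, normally at 200 ppm, occasionally 40 ppm.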

Septoria nodorum = test: Test F: wheat glume blotch on wheat seedlings, sprayed the day before inoculation, visual disease rating
Procedure, shortened: (§1)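 Test rate was 200 ppm, sprayed to run-off and equal to 500 g/ha, or 40 ppm where marked. The compound was first taken up in acetone at 3% of final volume and suspended in acetone/purified water (50/50) containing 250 ppm Trem® 014.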

Alternaria solani = test: Test D: tomato early blight, sprayed the day before inoculation, visual disease rating
Procedure, shortened: as §1

[1] = system: Puccinia recondita f. sp. tritici; test: Test H: wheat leaf rust, test suspension sprayed after inoculation of wheat seedlings, visual disease rating
Procedure, shortened: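 Wheat seedlings inoculated with P. recondita spores, held 24 h saturated at 20 °C, then 2 days in growth chamber at 20 °C; compound suspension (acetone/water with Trem 014) sprayed to run-off afterwards. Rated visually; 200 ppm (≈500 g/ha) unless marked *, which denotes 40 ppm.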

Septoria tritici = test: Test G: wheat leaf blotch on wheat seedlings, sprayed the day before inoculation, visual disease rating
Procedure, shortened: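 Spray to run-off, 200 ppm (≈500 g/ha; starred = 40 ppm), acetone/water 50/50 + 250 ppm Trem® 014. Spore inoculation +1 d. 24° C saturated 48 h → 20° C 19 d. Visual rating.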

[2] = system: Puccinia recondita f. sp. tritici; test: Test I: wheat leaf rust on wheat seedlings, sprayed the day before inoculation, visual disease rating
Procedure, shortened: as §1

[3] = system: Erysiphe graminis f. sp. tritici; test: Test J: wheat powdery mildew on wheat seedlings, sprayed the day before inoculation, visual disease rating
Procedure, shortened: as §1

[4] = 40 ppm (marked *), 0 = no control
[5] = 200 ppm, 0 = no control relative to controls

Row | SMILES | Test C disease control rating (Botrytis cinerea; [5]) | Test F disease control rating (Septoria nodorum; [5]) | Test D disease control rating (Alternaria solani; [5]) | Test H disease control rating [1, 5] | Test G disease control rating (Septoria tritici; [5]) | Test I disease control rating [2, 5] | Test J disease control rating [3, 5] | further results
1 | COc1cc(F)c(-n2c(Cl)nc(CCl)c2-c2ccc(Cl)cc2)c(F)c1 [compound 397] |  |  |  |  |  |  |  | Test C disease control rating (Botrytis cinerea; [4]): 100* %; Test F disease control rating (Septoria nodorum; [4]): 0* %; Test D disease control rating (Alternaria solani; [4]): 98* %; Test H disease control rating [1, 4]: 0* %; Test G disease control rating (Septoria tritici; [4]): 94* %; Test I disease control rating [2, 4]: 88* %; Test J disease control rating [3, 4]: 13* %
2 | Fc1ccc(F)c(-c2c(Br)nc(Br)n2-c2ccc(Cl)cc2)c1Cl [compound 374] | 99% | 0% | 99% | 0% | 94% | 90% | 98% | 
3 | COc1ccc(F)c(-c2c(Cl)nc(Cl)n2Cc2ccc(Cl)cc2)c1F [compound 288] |  |  |  |  |  |  |  | Test C disease control rating (Botrytis cinerea; 200 ppm, 0 = no control): 100%; Test F disease control rating (Septoria nodorum; 200 ppm, 0 = no control): 73%; Test D disease control rating (Alternaria solani; 200 ppm, 0 = no control): 91%; Test H disease control rating ([1]; 200 ppm, 0 = no control): 32%; Test G disease control rating (Septoria tritici; 200 ppm, 0 = no control): 94%; Test I disease control rating ([2]; 200 ppm, 0 = no control): 96%; Test J disease control rating ([3]; 200 ppm, 0 = no control): 99%
4 | COc1cc(F)c(-c2c(Cl)nc(Cl)n2-c2cccnc2C)c(F)c1 [compound 675] | 100% | 99% | 100% | 100% | 98% | 100% | 100% | 
5 | Cc1nc(Cl)n(-c2ccc(Cl)c(F)c2)c1-c1ccnc(F)c1 [compound 323] | 100% | 0% | 99% | 70% | 100% | 100% | 99% | 
6 | COc1cc(F)c(-c2c(Br)nc(Br)n2-c2ccc(F)cc2)c(F)c1 [compound 523] |  |  |  |  |  |  |  | Test C disease control rating (Botrytis cinerea; 40 ppm (marked *)): 100* %; Test F disease control rating (Septoria nodorum; 40 ppm (marked *)): 0* %; Test D disease control rating (Alternaria solani; 40 ppm (marked *)): 100* %; Test H disease control rating ([1]; 40 ppm (marked *)): 0* %; Test G disease control rating (Septoria tritici; 40 ppm (marked *)): 98* %; Test I disease control rating ([2]; 40 ppm (marked *)): 99* %; Test J disease control rating ([3]; 40 ppm (marked *)): 97* %
7 | COc1cc(F)c(-c2c(Cl)nc(C)n2Cc2ccc(C)nc2)c(F)c1 [compound 671] | 99% | 92% | 100% | 17% | 95% | 78% | 0% | 
8 | Cc1nc(Br)n(-c2ccc(F)cc2Cl)c1-c1ccc(Cl)cc1 [compound 339] | 100% | 78% | 99% | 0% | 95% | 96% | 96% | 
9 | Fc1cccc(-n2c(Br)nc(Cl)c2-c2c(F)ccc(F)c2F)c1 [compound 368] | 99% | 0% | 100% | 0% | 92% | 99% | 96% | 
10 | Cc1ccc(-n2c(Cl)nc(Cl)c2-c2c(F)cccc2F)nc1 [compound 577] | 100% | 87% | 100% | 97% | 100% | 100% | 100% | 
11 | N#Cc1ccc(F)c(-c2c(Cl)nc(Br)n2-c2ccc(Cl)nc2)c1F [compound 701] | 100% | 91% | 100% | 7% | 99% | 100% | 95% | 
12 | COc1cc(F)c(-c2c(C)nc(Br)n2-c2ccc(OC)nc2)c(F)c1 [compound 736] | 99% | 97% | 100% | 99% | 100% | 100% | 100% | 
13 | COc1cc(F)c(-c2c(-c3ccc(I)cc3)c(OC)nn2C)c(F)c1 [compound 431] | 9% | 0% | 9% | 9% | 98% | 0% | 0% | 
14 | CN(C)c1ccc(-n2cnc(N(C)C)c2-c2c(F)cccc2F)cc1 [compound 634] |  |  |  |  |  |  |  | Test C disease control rating (Botrytis cinerea; 40 ppm (marked *)): 0* %; Test F disease control rating (Septoria nodorum; 40 ppm (marked *)): 0* %; Test D disease control rating (Alternaria solani; 40 ppm (marked *)): 0* %; Test H disease control rating ([1]; 40 ppm (marked *)): 0* %; Test G disease control rating (Septoria tritici; 40 ppm (marked *)): 0* %; Test I disease control rating ([2]; 40 ppm (marked *)): 0* %; Test J disease control rating ([3]; 40 ppm (marked *)): 0* %
15 | COc1ccc(-n2c(Br)nc(Br)c2-c2c(F)cccc2F)cn1 [compound 622] | 100% | 99% | 100% | 100% | 99% | 100% | 100% | 
16 | Cc1nc(Cl)c(-c2c(F)cccc2F)n1-c1ccc(Cl)nc1 [compound 666] | 100% | 99% | 100% | 100% | 99% | 100% | 100% | 
17 | Fc1cccc(-n2c(Cl)nc(Cl)c2-c2c(F)cc(F)cc2F)c1 [compound 365] | 100% | 40% | 100% | 54% | 91% | 99% | 96% | 
18 | Cc1ncn(-c2ccc(Cl)c(F)c2)c1-c1ccc(Br)cn1 [compound 347] | 93% | 0% | 0% | 26% | 70% | 9% | 0% | 
19 | COCc1nc(Cl)n(-c2c(F)cccc2F)c1-c1ccc(Cl)cc1 [compound 467] |  |  |  |  |  |  |  | Test C disease control rating (Botrytis cinerea; 40 ppm (marked *)): 94* %; Test F disease control rating (Septoria nodorum; 40 ppm (marked *)): 0* %; Test D disease control rating (Alternaria solani; 40 ppm (marked *)): 0* %; Test H disease control rating ([1]; 40 ppm (marked *)): 0* %; Test G disease control rating (Septoria tritici; 40 ppm (marked *)): 32* %; Test I disease control rating ([2]; 40 ppm (marked *)): 71* %; Test J disease control rating ([3]; 40 ppm (marked *)): 96* %
20 | COc1cc(F)c(-c2c(Cl)nc(Cl)n2-c2ccc(C)cc2)c(F)c1Cl [compound 405] | 99% | 0% | 98% | 0% | 100% | 98% | 99% | 

— patent US20110045101A1, “FUNGICIDAL SUBSTITUTED AZOLES” (E.I. Du Pont De Nemours and Company, priority 2009, published 2011)
